The test system of assay [1] is NSCLC cell lines A549 and H460. The experiment in a line: Apoptosis by Annexin V/PI staining, NSCLC cell lines. The class given is cell-based. The following applies: 48 hours. The protocol: Referring now to FIG. 11A. Gel showing effect of MCI13E on DNA-RPA binding. […] Cytotoxicity was analyzed via crystal violet analysis as described in “methods” 48 hours following MCI13E treatment. Data represent the average and standard deviation of four replicate experiments with each replicate containing triplicate determinations and the circles represent data from H460 cells and squares A549 cells. Referring now to FIG. 11C. Graph of MCI13E induced death via apoptosis in NSCLC cell lines. Cell were treated with the indicated concentrations of MCI13E for 48 hours and analyzed for the induction of apoptosis via Annexin V/PI staining Referring now to FIG. 11D. Graph of cell survival as a function of [MCI1EC]. Percent survival was calculated for each cell line using untreated cells as a control. […]
Flow Cytometry—After determining the SMI cytotoxicity, H460, A549 and H1299 lung cancer cell lines were analyzed for apoptosis using the Annexin V-FITC/Propidium Iodide (PI) Vybrant® Apoptosis Assay kit (Invitrogen, Gaithersburg, Md.). […] Following treatment, both adherent and non-adherent cells were collected, processed via the manufacturer's protocol (Invitrogen) and analyzed on a FACScan flow cytometer (Becton Dickson, San Jose, Calif.). Data was analyzed using WinDMI software (The Scripps Research Institute, Can Diego, Calif.) and results are presented as a percentage of control (untreated cells).

For another assay, the system named is H1299 cells. The experiment in a line: Apoptosis by Annexin V/PI staining, H1299. Type of assay: cell-based. Particulars: H1299, Annexin V and propidium iodine staining. On the procedure:
Referring now to FIG. 13A. Cell Viability and Apoptosis of Ovarian and p53 null Lung Cancer Cell Lines. A) Ovarian cancer cell line A2780 and the p53 null lung cancer cell line, H1299, were treated with log dosing of MCI13E and viability analyzed via CCK-8 metabolic assay as described in Methods. Data is presented as cell survival which was determined as a percent of the untreated control cells and represents the average and standard deviation of triplicate experiments Referring now to FIG. 13B.
Flow Cytometry—After determining the SMI cytotoxicity, H460, A549 and H1299 lung cancer cell lines were analyzed for apoptosis using the Annexin V-FITC/Propidium Iodide (PI) Vybrant® Apoptosis Assay kit (Invitrogen, Gaithersburg, Md.). Cells were plated in 6-well dishes (2×10^5 cells total), treated for 24 (H1299) or 48 (H460 and A549) hours with increasing concentrations of SMI. Following treatment, both adherent and non-adherent cells were collected, processed via the manufacturer's protocol (Invitrogen) and analyzed on a FACScan flow cytometer (Becton Dickson, San Jose, Calif.). Data was analyzed using WinDMI software (The Scripps Research Institute, Can Diego, Calif.) and results are presented as a percentage of control (untreated cells).

For the compound `CC1(C)C2CCC1(C)C(OC(=O)CBr)C2` (racemic) [MCI13E, (+/−)-Isobornyl bromoacetate], in assay [1], the “Mode of cell death” value is reported as “induces death via classical apoptosis”. The Induction of apoptosis result with H1299 cells was “indicative of the induction of apoptosis”.
